For 5 cell lines, relative viability results are on record in the supplement of paper PMC10307832.

Test in all cases: relative viability (nuclei count vs DMSO), 5 days (fraction); higher = more cells survive
Compound in the test “AZD5582 + Lapatinib”: C[C@@H](C(=O)N[C@@H](C1CCCCC1)C(=O)N2CCC[C@H]2C(=O)N[C@@H]3[C@@H](CC4=CC=CC=C34)OCC#CC#CCO[C@@H]5CC6=CC=CC=C6[C@@H]5NC(=O)[C@@H]7CCCN7C(=O)[C@H](C8CCCCC8)NC(=O)[C@H](C)NC)NC [AZD5582] + CS(=O)(=O)CCNCc1ccc(-c2ccc3ncnc(Nc4ccc(OCc5cccc(F)c5)c(Cl)c4)c3c2)o1 [Lapatinib] (partner 2 µM)
A digest of the protocol:
(§1)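 For relative viability, nuclei counts in treated wells were divided by those in vehicle wells. Lung cancer cell lines had been pin-tool dosed in 1536-well plates the day after seeding and cultured for 5 days, then fixed and stained in one step (final 0.05% Triton X-100, 1% formaldehyde, 1 ug/ml Hoechst) and imaged at 4×. Doses were one drug alone or a fixed anchor-drug dose plus five library-drug doses (not always all listed) in √10 steps, and values are duplicate-plate medians.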

Compound in test [1]: Cn1nnc2c(C(N)=O)ncn2c1=O [Temozolomide] + N=C(N)NC(=N)NCCc1ccccc1 [Phenformin] (partner 250 µM)
A digest of the protocol:
as §1

Compound in test [2]: Cn1nnc2c(C(N)=O)ncn2c1=O [Temozolomide] + CCNC(=O)c1noc(-c2cc(C(C)C)c(O)cc2O)c1-c1ccc(CN2CCOCC2)cc1 [Luminespib] (partner 0.01 µM)
A digest of the protocol: as §1

Compound in test [3]: Cn1nnc2c(C(N)=O)ncn2c1=O [Temozolomide] + CC(=O)c1c(C)c2cnc(Nc3ccc(N4CCNCC4)cn3)nc2n(C2CCCC2)c1=O [Palbociclib] (partner 0.5 µM)
The gist of the method:
as §1

On to NCI-H1395, for which the relative viability came out at 1.08 with AZD5582 + Lapatinib (first compound 0.001581 µM); 1.07 in the test with AZD5582 + Lapatinib (first compound 0.005 µM); 1.13 with AZD5582 + Lapatinib (first compound 0.05 µM); 0.458 in test [1] (first compound 0.2 µM); 0.428 in test [1] (first compound 0.6325 µM); 0.494 in test [1] (first compound 2 µM). In addition, the relative viability was determined as 0.435 in test [1] (first compound 6.325 µM); 0.461 in test [1] (first compound 20 µM); 0.51 in test [2] (first compound 0.2 µM); 0.67 in test [2] (first compound 0.6325 µM); 0.703 in test [2] (first compound 2 µM); 0.65 in test [2] (first compound 6.325 µM). For the same cell line, the relative viability in test [2] (first compound 20 µM) was found to be 0.6; in test [3] (first compound 0.2 µM), 0.532; in test [3] (first compound 0.6325 µM), 0.62; in test [3] (first compound 2 µM), 0.663; in test [3] (first compound 6.325 µM), 0.616; in test [3] (first compound 20 µM) it was 0.535.

For the cell line NCI-H1915, the relative viability was 0.923 with AZD5582 + Lapatinib (first compound 0.001581 µM); 1.02 with AZD5582 + Lapatinib (first compound 0.005 µM); 0.873 with AZD5582 + Lapatinib (first compound 0.01581 µM); 0.89 in the test with AZD5582 + Lapatinib (first compound 0.05 µM); 0.393 in test [1] (first compound 0.2 µM); 0.385 in test [1] (first compound 0.6325 µM). Moreover, the relative viability is 0.35 in test [1] (first compound 2 µM); 0.268 in test [1] (first compound 6.325 µM); 0.259 in test [1] (first compound 20 µM); 0.963 in test [2] (first compound 0.2 µM); 0.761 in test [2] (first compound 0.6325 µM); 0.616 in test [2] (first compound 2 µM). Moreover, the relative viability in test [2] (first compound 6.325 µM) came out at 0.429; in test [2] (first compound 20 µM), 0.313; in test [3] (first compound 0.2 µM), 0.546; in test [3] (first compound 0.6325 µM), 0.483; in test [3] (first compound 2 µM), 0.521; in test [3] (first compound 6.325 µM), 0.399. For the same cell line, in test [3] (first compound 20 µM), the relative viability is 0.228.

Turning to BEN, the relative viability was 0.478 with AZD5582 + Lapatinib (first compound 0.001581 µM); 0.67 with AZD5582 + Lapatinib (first compound 0.005 µM); 0.764 with AZD5582 + Lapatinib (first compound 0.01581 µM); 0.417 with AZD5582 + Lapatinib (first compound 0.05 µM); 0.286 in test [1] (first compound 0.2 µM); 0.288 in test [1] (first compound 0.6325 µM). The relative viability in test [1] (first compound 2 µM) came to 0.229; in test [1] (first compound 6.325 µM), 0.27; in test [1] (first compound 20 µM), 0.26; in test [2] (first compound 0.2 µM), 0.323; in test [2] (first compound 0.6325 µM), 0.323; in test [2] (first compound 2 µM), 0.462. Moreover, the relative viability is 0.233 in test [2] (first compound 6.325 µM); 0.228 in test [2] (first compound 20 µM); 0.483 in test [3] (first compound 0.2 µM); 0.466 in test [3] (first compound 0.6325 µM); 0.469 in test [3] (first compound 2 µM); 0.487 in test [3] (first compound 6.325 µM). Further, the relative viability in test [3] (first compound 20 µM) was 0.471.

As for LC-2-ad, the relative viability turned out to be 0.966 with AZD5582 + Lapatinib (first compound 0.001581 µM); 1.07 in the test with AZD5582 + Lapatinib (first compound 0.005 µM); 0.888 with AZD5582 + Lapatinib (first compound 0.01581 µM); 0.904 in the test with AZD5582 + Lapatinib (first compound 0.05 µM); 0.609 in test [1] (first compound 0.2 µM); 0.651 in test [1] (first compound 0.6325 µM). The relative viability was found to be 0.584 in test [1] (first compound 2 µM); 0.601 in test [1] (first compound 6.325 µM); 0.46 in test [1] (first compound 20 µM); 0.928 in test [2] (first compound 0.2 µM); 1.05 in test [2] (first compound 0.6325 µM); 1.09 in test [2] (first compound 2 µM). The relative viability in test [2] (first compound 6.325 µM) was found to be 0.899; in test [2] (first compound 20 µM), 0.988; in test [3] (first compound 0.2 µM) it was 0.474; in test [3] (first compound 0.6325 µM), 0.494; in test [3] (first compound 2 µM), 0.512; in test [3] (first compound 6.325 µM), 0.537. In test [3] (first compound 20 µM), the relative viability came out at 0.473.

With LXF-289, the relative viability with AZD5582 + Lapatinib (first compound 0.001581 µM) turned out to be 0.895; with AZD5582 + Lapatinib (first compound 0.005 µM), 0.929; in the test with AZD5582 + Lapatinib (first compound 0.01581 µM), 0.823; with AZD5582 + Lapatinib (first compound 0.05 µM), 0.922; in test [1] (first compound 0.2 µM), 0.553; in test [1] (first compound 0.6325 µM), 0.53. The relative viability stood at 0.511 in test [1] (first compound 2 µM); 0.457 in test [1] (first compound 6.325 µM); 0.458 in test [1] (first compound 20 µM); 0.712 in test [2] (first compound 0.2 µM); 0.782 in test [2] (first compound 0.6325 µM); 0.722 in test [2] (first compound 2 µM). Further, the relative viability in test [2] (first compound 6.325 µM) is 0.729; in test [2] (first compound 20 µM) it was 0.659; in test [3] (first compound 0.2 µM), 0.616; in test [3] (first compound 0.6325 µM), 0.626; in test [3] (first compound 2 µM) it was 0.606; in test [3] (first compound 6.325 µM) it was 0.579. For the same cell line, the relative viability in test [3] (first compound 20 µM) is 0.564.
